In ChEMBL document CHEMBL5523769, “Discovery of Novel Nonpeptidic and Noncovalent Small Molecule 3CLpro Inhibitors as anti-SARS-CoV-2 Drug Candidate” (J Med Chem, 2024):

Legend:
[1] = molecular target: T1, Replicase polyprotein 1ab (Severe acute respiratory syndrome coronavirus 2, UniProt P0DTD1)
[2] = Cytotoxicity against African green monkey Vero E6 cells incubated for 24 hrs by CCK8 assay; format: toxicity, cell-based, Vero C1008; conditions: chlorocebus sabaeus
[3] = molecular target: Replicase polyprotein 1ab (Severe acute respiratory syndrome coronavirus 2) (UniProt P0DTD1); conditions: dose 31.25-1000 nM, time 100.0 sec
[4] = molecular target: Replicase polyprotein 1ab (Severe acute respiratory syndrome coronavirus 2) (UniProt P0DTD1); conditions: dose 31.25-1000 nM, time 100.0 sec; remark: listed apart in the source
[5] = molecular target: T1, Replicase polyprotein 1ab; remark: listed apart in the source
[6] = Observed MRT (0 to infinity) in ICR mouse at 20 mg/kg, po; format: ADME, organism-based; conditions: in vivo
[7] = Half-life in ICR mouse at 20 mg/kg, po; format: ADME, organism-based; conditions: in vivo
[8] = Cmax in ICR mouse at 20 mg/kg, po; format: ADME, organism-based; conditions: in vivo
[9] = AUClast in ICR mouse at 20 mg/kg, po; format: ADME, organism-based; conditions: in vivo
[10] = AUC (0 to infinity) in ICR mouse at 20 mg/kg, po; format: ADME, organism-based; conditions: in vivo
[11] = Tmax in ICR mouse at 20 mg/kg, po; format: ADME, organism-based; conditions: in vivo
[12] = molecular target: T1, Replicase polyprotein 1ab; remark: listed apart in the source

Compound | IC50 [1] [µM] | also measured
O=C(NCCC1CC1)C1CN(c2ccc(Cl)c(Cl)c2)CCN1C(=O)c1cc(=O)[nH]c2ccccc12 (configuration not stated) | 0.52 | 
O=C(c1cc(=O)[nH]c2ccccc12)N1CCC(Nc2ccc(Cl)c(Cl)c2)C1 (configuration not stated) | 8.33 | 
CNC(=O)c1cc(Br)cc([N+](=O)[O-])c1NC1CCN(C(=O)c2cc(=O)[nH]c3ccccc23)C1 (configuration not stated) | 0.195 | 
O=C(N[C@H]1CCCC[C@H]1Nc1c(C(=O)N2CCOCC2)cc(Br)cc1[N+](=O)[O-])c1cc(=O)[nH]c2c(F)cccc12 | 0.0269 | CC50 at 24 h [2]: > 200 µM; K [3]: 5.4 10^5/M/s; K [4]: 0.01 s⁻¹; Kd [5]: 0.019 µM; MRT inf [6]: 39 min; half-life [7]: 48 min; Cmax [8]: 33.9 ng/mL; AUC(0-t) [9]: 21.2 ng·h/mL; AUC(0-inf) [10]: 21.6 ng·h/mL; Tmax [11]: 15 min
O=C(NCCCN1CCOCC1)C1CN(c2ccc(Cl)c(Cl)c2)CCN1C(=O)c1cc(=O)[nH]c2ccccc12 (configuration not stated) | 1.34 | 
O=C(NCC1CCC1)C1CN(c2ccc(Cl)c(Cl)c2)CCN1C(=O)c1cc(=O)[nH]c2ccccc12 (configuration not stated) | 0.3 | 
CN1CCN(C(=O)c2cc(C3CC3)cc([N+](=O)[O-])c2N[C@@H]2CCC[C@@H]2NC(=O)c2cc(=O)[nH]c3c(F)cccc23)CC1 | 0.0285 | 
O=C(N[C@H]1CCC[C@H]1Nc1c(C(=O)N2CCOCC2)cc(Br)cc1[N+](=O)[O-])c1cc(=O)[nH]c2ccccc12 | 0.0209 | 
CNC(=O)c1cccc([N+](=O)[O-])c1N[C@@H]1CCCC[C@@H]1NC(=O)c1cc(=O)[nH]c2ccccc12 | 1.24 | 
O=C(NCC1CC1)C1CN(c2ccc(Cl)c(Cl)c2)CCN1C(=O)c1cc(=O)[nH]c2ccccc12 (configuration not stated) | 0.34 | 
O=C(N[C@H]1CCC[C@H]1Nc1c(C(=O)N2CCOCC2)cc(Br)cc1[N+](=O)[O-])c1cc(=O)[nH]c2c(F)cccc12 | 0.0365 | 
COc1ccc2[nH]c(=O)cc(C(=O)N[C@H]3CCC[C@H]3Nc3c(C(=O)N4CCOCC4)cc(C4CC4)cc3[N+](=O)[O-])c2c1 | 0.0203 | 
CNC(=O)c1cc(Br)cc([N+](=O)[O-])c1N[C@H]1CCC[C@H]1NC(=O)c1cc(=O)[nH]c2ccccc12 | 0.0513 | 
O=C(NCCC1CCCC1)C1CN(c2ccc(Cl)c(Cl)c2)CCN1C(=O)c1cc(=O)[nH]c2ccccc12 (configuration not stated) | 0.92 | 
COc1ccc2[nH]c(=O)cc(C(=O)N[C@H]3CCC[C@H]3Nc3c(C(=O)N4CCN(C)CC4)cc(C4CC4)cc3[N+](=O)[O-])c2c1 | 0.024 | 
O=C(NCCC(F)(F)F)C1CN(c2ccc(Cl)c(Cl)c2)CCN1C(=O)c1cc(=O)[nH]c2ccccc12 (configuration not stated) | 0.2 | CC50 at 24 h [2]: 50.3 µM
CN1CCN(C(=O)c2cc(C3CC3)cc([N+](=O)[O-])c2N[C@@H]2CCC[C@@H]2NC(=O)c2cc(=O)[nH]c3ccccc23)CC1 | 0.0249 | 
CNC(=O)c1cc(Br)cc([N+](=O)[O-])c1N[C@@H]1CCCC[C@@H]1NC(=O)c1cc(=O)[nH]c2c(F)cccc12 | 0.057 | CC50 at 24 h [2]: > 200 µM; K [3]: 7.5 10^5/M/s; K [4]: 0.018 s⁻¹; Kd [5]: 0.0236 µM; MRT inf [6]: 93.6 min; half-life [7]: 139 min; Cmax [8]: 63.6 ng/mL; AUC(0-t) [9]: 56.1 ng·h/mL; AUC(0-inf) [10]: 58.2 ng·h/mL; Tmax [11]: 3 min
CNC(=O)c1cc(Br)cc([N+](=O)[O-])c1N[C@@H]1CCCC[C@@H]1NC(=O)c1cc(=O)[nH]c2ccccc12 | 0.0408 | CC50 at 24 h [2]: > 200 µM; K [3]: 2.1 10^5/M/s; K [4]: 0.019 s⁻¹; Kd [5]: 0.0089 µM; MRT inf [6]: 305 min; half-life [7]: 231 min; Cmax [8]: 11.3 ng/mL; AUC(0-t) [9]: 23.6 ng·h/mL; AUC(0-inf) [10]: 29.9 ng·h/mL; Tmax [11]: 15 min

Compound | IC50 [1] [µM] | also measured
O=C(N[C@H]1CCCC[C@H]1Nc1c(C(=O)N2CCOCC2)cc(C2CC2)cc1[N+](=O)[O-])c1cc(=O)[nH]c2c(F)cccc12 | 0.0115 | 
O=C(N[C@H]1CCCC[C@H]1Nc1c(C(=O)N2CCOCC2)cc(C2CC2)cc1[N+](=O)[O-])c1cc(=O)[nH]c2ccccc12 | 0.0096 | CC50 at 24 h [2]: > 200 µM
O=C(NCCN1CCOCC1)C1CN(c2ccc(Cl)c(Cl)c2)CCN1C(=O)c1cc(=O)[nH]c2ccccc12 (configuration not stated) | 0.84 | 
O=C(c1cc(=O)[nH]c2ccccc12)N1CCN(c2ccc(Cl)c(Cl)c2)CC1Cc1ccccc1 (configuration not stated) | > 20 | 
O=C(N[C@H]1CCC[C@H]1Nc1c(C(=O)N2CCOCC2)cc(C2CC2)cc1[N+](=O)[O-])c1cc(=O)[nH]c2c(F)cccc12 | 0.0213 | 
O=C(C1CN(c2ccc(Cl)c(Cl)c2)CCN1C(=O)c1cc(=O)[nH]c2ccccc12)N1CCC2(CC1)COC2 (configuration not stated) | 2.22 | 
O=C(c1cc(=O)[nH]c2ccccc12)N1CCN(c2ccc(Cl)c(Cl)c2)C[C@@H]1CC1CCCCC1 | > 20 | 
O=C(C1CN(c2ccc(Cl)c(Cl)c2)CCN1C(=O)c1cc(=O)[nH]c2ccccc12)N1CC2(COC2)C1 (configuration not stated) | 2.11 | 
CC1(C)C2CN(C(=O)C3CN(c4ccc(Cl)c(Cl)c4)CCN3C(=O)c3cc(=O)[nH]c4ccccc34)CC21 (configuration not stated) | 4.51 | 
O=C(NCCCC(F)(F)F)C1CN(c2ccc(Cl)c(Cl)c2)CCN1C(=O)c1cc(=O)[nH]c2ccccc12 (configuration not stated) | 0.2 | CC50 at 24 h [2]: 69.4 µM
O=C(C1CN(c2ccc(Cl)c(Cl)c2)CCN1C(=O)c1cc(=O)[nH]c2ccccc12)N1CCOCC1 (configuration not stated) | 9.47 | 
COc1ccc2[nH]c(=O)cc(C(=O)N[C@H]3CCCC[C@H]3Nc3c(C(=O)N4CCOCC4)cc(C4CC4)cc3[N+](=O)[O-])c2c1 | 0.0106 | CC50 at 24 h [2]: > 200 µM
CN1CCN(C(=O)c2cc(Br)cc([N+](=O)[O-])c2N[C@@H]2CCC[C@@H]2NC(=O)c2cc(=O)[nH]c3ccccc23)CC1 | 0.0229 | 
O=C(N[C@H]1CCCC[C@H]1Nc1c(C(=O)N2CCOCC2)cc(Br)cc1[N+](=O)[O-])c1cc(=O)[nH]c2cc(F)ccc12 | 0.0387 | 
O=C1CC2CN(C(=O)C3CN(c4ccc(Cl)c(Cl)c4)CCN3C(=O)c3cc(=O)[nH]c4ccccc34)CC2C1 (configuration not stated) | 1.85 | 
O=C(N[C@H]1CCCC[C@H]1Nc1c(C(=O)N2CCOCC2)cc(Br)cc1[N+](=O)[O-])c1cc(=O)[nH]c2ccccc12 | 0.0327 | CC50 at 24 h [2]: > 200 µM
CN(CC1COCCO1)C(=O)C1CN(c2ccc(Cl)c(Cl)c2)CCN1C(=O)c1cc(=O)[nH]c2ccccc12 (configuration not stated) | 2.61 | 
O=C(N[C@H]1CCC[C@H]1Nc1c(C(=O)N2CCOCC2)cc(C2CC2)cc1[N+](=O)[O-])c1cc(=O)[nH]c2ccccc12 | 0.0235 | 
O=C(NCCC(F)(F)F)[C@H]1CN(c2ccc(Cl)c(Cl)c2)CCN1C(=O)c1cc(=O)[nH]c2ccccc12 | 0.54 | 

Compound | IC50 [1] [µM] | also measured
CN1CCN(C(=O)c2cc(Br)cc([N+](=O)[O-])c2N[C@@H]2CCC[C@@H]2NC(=O)c2cc(=O)[nH]c3c(F)cccc23)CC1 | 0.0286 | 
O=C(NCC1CCCCC1)C1CN(c2ccc(Cl)c(Cl)c2)CCN1C(=O)c1cc(=O)[nH]c2ccccc12 (configuration not stated) | 0.44 | 
O=C(N[C@@H]1CCC[C@@H]1Nc1ccc(Cl)c(Cl)c1)c1cc(=O)[nH]c2ccccc12 | > 10 | 
O=C(NCCC1CCOCC1)C1CN(c2ccc(Cl)c(Cl)c2)CCN1C(=O)c1cc(=O)[nH]c2ccccc12 (configuration not stated) | 1.14 | 
O=C1CCN(C(=O)C2CN(c3ccc(Cl)c(Cl)c3)CCN2C(=O)c2cc(=O)[nH]c3ccccc23)CC1 (configuration not stated) | 3.31 | 
CNC(=O)c1cc(Br)cc([N+](=O)[O-])c1N[C@@H]1CCCC[C@@H]1NC(=O)c1cc(=O)[nH]c2ccc(F)cc12 | 0.0582 | CC50 at 24 h [2]: > 200 µM
COc1ccc2[nH]c(=O)cc(C(=O)N[C@H]3CCCC[C@H]3Nc3c(C(=O)N4CCOCC4)cc(Br)cc3[N+](=O)[O-])c2c1 | 0.0292 | 
COc1ccc2[nH]c(=O)cc(C(=O)N[C@H]3CCCC[C@H]3Nc3c(C(=O)N4CCN(C)CC4)cc(Br)cc3[N+](=O)[O-])c2c1 | 0.018 | 
O=C(NCC1CCCO1)C1CN(c2ccc(Cl)c(Cl)c2)CCN1C(=O)c1cc(=O)[nH]c2ccccc12 (configuration not stated) | 0.35 | 
CN1CCN(C(=O)C2CN(c3ccc(Cl)c(Cl)c3)CCN2C(=O)c2cc(=O)[nH]c3ccccc23)CC1 (configuration not stated) | 1.32 | 
CNC(=O)c1cc(C2CC2)cc([N+](=O)[O-])c1N[C@@H]1CCCC[C@@H]1NC(=O)c1cc(=O)[nH]c2ccccc12 | 0.0207 | CC50 at 24 h [2]: > 200 µM
CCCCNC(=O)C1CN(c2ccc(Cl)c(Cl)c2)CCN1C(=O)c1cc(=O)[nH]c2ccccc12 (configuration not stated) | 0.58 | 
O=C1CC2(CCN(C(=O)C3CN(c4ccc(Cl)c(Cl)c4)CCN3C(=O)c3cc(=O)[nH]c4ccccc34)CC2)C1 (configuration not stated) | 1.29 | 
O=C(c1cc(=O)[nH]c2ccccc12)N1CCN(c2ccc(Cl)c(Cl)c2)CC1CN1CCOCC1 (configuration not stated) | 0.15 | CC50 at 24 h [2]: 381 µM; K [4]: 0.028 s⁻¹; Kd [5]: 0.117 µM; IC50 [12]: 0.15 µM
O=C(NCC1CCO1)C1CN(c2ccc(Cl)c(Cl)c2)CCN1C(=O)c1cc(=O)[nH]c2ccccc12 (configuration not stated) | 0.31 | 
CNC(=O)c1cc(Br)cc([N+](=O)[O-])c1N[C@@H]1CCCC[C@@H]1NC(=O)c1cc(=O)[nH]c2cc(F)ccc12 | 0.105 | 
O=C(NCC1CCCC1)C1CN(c2ccc(Cl)c(Cl)c2)CCN1C(=O)c1cc(=O)[nH]c2ccccc12 (configuration not stated) | 0.28 | 
O=C(NCCC(F)(F)F)[C@@H]1CN(c2ccc(Cl)c(Cl)c2)CCN1C(=O)c1cc(=O)[nH]c2ccccc12 | 0.15 | 
